The text below walks through data of paper PMC8973439, “From Fish Scale Gelatin to Tyrosinase Inhibitor: A Novel Peptides Screening Approach Application” (Frontiers in Nutrition, 2022).

The subject of one data set is B16F10 melanoma cells. Put plainly: Cell viability of B16F10 melanoma cells (CCK-8). It counts as cell-based, murine. The conditions noted are these: 24 h. The protocol:
(§1) B16F10 cells were kept in Dulbecco's modified eagle medium supplemented with 10% heat-inactivated fetal bovine serum, and cells were cultured at 37°C in an atmosphere with 5% CO2. These cells were then used for cell viability, tyrosinase inhibition and melanin content determination.
The previously described cell counting kit-8 (CCK-8) assay was used to assess cell viability ([30]). The cells were incubated in a 96-well plate with 5 × 10^4 cells per well in a 5% humid CO2 atmosphere at 37°C for 24 h. […] The cells were re-incubated for 24 h under the same conditions. The cells were then treated with the CCK-8 reagent and incubated at 37°C for 1 h. Cell viability is calculated by reading the absorbance value at 450 nm. The calculation formula is shown below. (2) Cell viability/%=(As-Ab)/(Ac-Ab)×100% where, As is the absorbance of experimental wells (medium containing cells, CCK-8, sample to be tested); Ac is the absorbance of control well (medium containing cells, CCK-8, no sample to be tested); Ab is the absorbance of blank wells (medium without cells and samples to be tested, CCK-8).

The target of another data set is Mushroom tyrosinase (Agaricus bisporus, UniProt C7FF04). Put plainly: Tyrosinase inhibitory activity (L-DOPA oxidation, 475 nm). It counts as biochemical. The protocol: The determination of the tyrosinase inhibitory activity was made according to Uysal et al. ([26]). Sample solutions (50 μl) with the appropriate concentration were reacted with 50 μl of 200 mM pH 6.8 phosphate buffer saline (PBS) solution and 50 μl of tyrosinase at room temperature for 15 mins. Then, 50 μl of 2.5 mM L-DOPA was added, and allowed to react at 30°C for 10 min. The absorbance (As) at 475 nm was finally measured with a microplate reader (Synergy H1, BioTek Co., Ltd., USA). Taking the reaction system without enzyme and sample as a blank.
Mushroom tyrosinase, sequence (C7FF04 1-392): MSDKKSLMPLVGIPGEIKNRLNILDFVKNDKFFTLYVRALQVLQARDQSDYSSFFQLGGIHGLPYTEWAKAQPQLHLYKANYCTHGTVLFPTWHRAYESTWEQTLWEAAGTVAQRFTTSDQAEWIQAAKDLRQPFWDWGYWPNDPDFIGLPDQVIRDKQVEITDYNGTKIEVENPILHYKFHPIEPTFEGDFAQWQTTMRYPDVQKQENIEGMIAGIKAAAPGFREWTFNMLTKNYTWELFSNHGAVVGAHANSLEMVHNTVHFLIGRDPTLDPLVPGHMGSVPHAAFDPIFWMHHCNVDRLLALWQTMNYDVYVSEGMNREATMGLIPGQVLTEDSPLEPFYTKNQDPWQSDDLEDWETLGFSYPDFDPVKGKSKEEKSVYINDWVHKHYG
4 ml of hydrolysis product (5 mg/ml) and 2 ml of mushroom tyrosinase (10 U/ml) were incubated for 1 h at 37°C. Inactivated mushroom tyrosinase (heated in a boiling water bath for 10 mins) was also prepared as a blank group.

The subject of data set [1] is B16F10 melanoma cells (melanin content). The data set is described as follows: Melanin content in B16F10 melanoma cells. Format: cell-based, murine. Particulars: positive control, 0.75 mg/ml; NaOH/10% DMSO lysis, 405 nm. The protocol: as §1
After cultivated according to the instructions above, the cells were digested with 0.25% trypsin when reached to 80–90% confluence to make a single cell suspension. Fresh culture medium was used to adjust the cell concentration to 1 × 10^6 cells/ml, 2 ml of which was inoculated in a 6-well culture plate for incubation overnight. When the cells adhered, the supernatant was discarded and the cells were rinsed with PBS once. 2 ml fresh culture medium was added again for incubation under CO2 for 48 h. The supernatant was discarded after the incubation, and the adhered cells were rinsed with PBS and then dispersed with trypsin. The dispersed cells were collected and centrifuged at 1,500 r/min for 10 min. […] Measured the optical density value of each well at 405 nm with a microplate reader, and calculated the melanin content ([32]). (3) Melanin content/%=(As-Ab)/(Ac-Ab)×100% where, As is the absorbance of experimental wells; Ac is the absorbance of control well; Ab is the absorbance of blank wells.

The test system of data set [2] is tyrosinase in B16F10 cells. The data set is described as follows: Tyrosinase activity in B16F10 melanoma cells. It counts as cell-based, murine. Particulars: positive control, 0.75 mg/ml, 24 h; lysate with 10 mM L-DOPA, 30 min 37°C, 450 nm.
Experimental: The tyrosinase inhibition was determined according to the method of Ullah et al. ([31]). B16F10 cells were seeded into 96-well plates at a rate of 5 × 10^4 cells per well and incubated at 37°C in a humid atmosphere of 5% CO2 for 24 h. […] (0, 0.1, 0.2, 0.4, 0.8 and 1.6 mg/ml), and re-incubated for 24 h under the same conditions. The cells were then washed with PBS buffer, lysed with lysate buffer [100 μl containing 50 mM PBS, 0.1 mM phenylmethanesulfonyl fluoride (5 μl) and Triton X-100 (5 μl)], and frozen at −80°C for 30 min. The cell lysate was then centrifuged at 12,000 rpm at 4°C for 30 min and transferred to a 96-well plate with a total volume of 100 μl (80 μl lysate supernatant and 20 μl 10 mM L-DOPA) and incubated for 30 min at 37°C. The absorbance was measured at 450 nm using an enzyme-linked immunosorbent assay (ELISA) reader.
In a further data set the target is tyrosinase. Particulars: cited from earlier work. The source says: Studies have shown that peptides with lower MW tend to have higher functional activity ([38]). Therefore, peptides with MW ≤ 1,000 Da were selected from the 52 peptides obtained, and 16 peptides (shown in Table 3) were obtained for subsequent analysis. Section Amino Acid Composition and Molecular Weight Distribution of Hydrolysates introduced some amino acids that contribute to tyrosinase inhibition, such as Val, Ala, Leu, Ile, Arg, Phe, Cys, Ser, and Thr. According to the screening method from previous study ([10]), 16 peptides in Table 3 were counted for their tyrosinase inhibitory contribut ...

The mark [3] stands for this setting: synthetic peptides (purity more than 95%), mushroom tyrosinase, 2.5 mM L-DOPA, 200 mM pH 6.8 PBS, preincubation 15 min room temperature, 10 min 30°C, 475 nm, three parallel tests, read-out: IC50 (tyrosinase inhibition).

Like-named read-outs stand apart in the source and are kept apart here. Where a SMILES comes first, the peptide text is derived from it.

In general, IC50 refers to the concentration that gives 50% inhibition.

Take `CC(C)C[C@H](NC(=O)[C@H](Cc1ccccc1)NC(=O)CNC(=O)[C@H](CC(C)C)NC(=O)[C@@H](N)CC(=O)O)C(=O)N[C@@H](C)C(=O)N[C@@H](CCCNC(=N)N)C(=O)NCC(=O)N[C@@H](Cc1ccccc1)C(=O)O` (H-DLGFLARGF-OH): the “Cell viability, concentration dependence” value in the data set with B16F10 melanoma cells (0–1.6 mg/ml, CCK-8) is listed as “cell survival rate gradually decreased”. Further, in the data set on B16F10 melanoma cells (tested concentration range 0–1.6 mg/ml, CCK-8, 450 nm), the Cell viability is recorded as more than 50%. On Mushroom tyrosinase, the IC50 came to 3.09 mM.

Take `CC(C)C[C@H](NC(=O)[C@H](CC(=O)O)NC(=O)[C@@H](N)Cc1ccccc1)C(=O)NCC(=O)N[C@@H](Cc1ccccc1)C(=O)N[C@@H](CC(C)C)C(=O)N[C@@H](C)C(=O)N[C@@H](CCCNC(=N)N)C(=O)O` (H-FDLGFLAR-OH): on Mushroom tyrosinase (setting [3]), the IC50 was 4 mM. As for `CC(C)C[C@H](NC(=O)[C@@H](NC(=O)[C@H](CC(C)C)NC(=O)[C@H](CCC(N)=O)NC(=O)[C@@H](N)Cc1c[nH]c2ccccc12)[C@@H](C)O)C(=O)O` [WQLTL] (H-WQLTL-OH), the IC50 at Mushroom tyrosinase (setting [3]) came to 3.86 mM.

As to `CC(C)[C@H](NC(=O)[C@H](CCC(=O)O)NC(=O)[C@H](CO)NC(=O)[C@@H](N)Cc1c[nH]c2ccccc12)C(=O)N[C@@H](Cc1ccccc1)C(=O)O` [WSEVF] (H-WSEVF-OH), at Mushroom tyrosinase (setting [3]), the IC50 turned out to be 5.81 mM.

With `O=c1cc(CO)occ1O` [kojic acid], the “Reduction of melanin content” value in data set [1] is listed as 55.4%. For the same compound, in data set [2], the “Tyrosinase inhibition rate in B16F10 cells” value was 28.34%. On to “Phe-Pro-Tyr [FPY, from defatted walnut (Juglans regia L.) meal hydrolysate]”, for which the IC50 at tyrosinase (from defatted walnut (Juglans regia L.) meal hydrolysate, read-out: IC50 (tyrosinase inhibition)) was 3.22 ± 0.22 mM. For “RHAKF [from Chinese quince seed protein hydrolysate]”, the “IC50 (tyrosinase inhibition)” value at tyrosinase (from Chinese quince seed protein hydrolysate) is 1150 µg/mL.
